Test results taken from paper PMC11618697 (Nature Communications, 2024).
Residues, ends and D or L forms follow the SMILES beside them. *: point of attachment. Cbz = O=C(OCc1ccccc1)*

How the values were obtained:
human CD25 = experiment: IHC staining of human CD25 in Hut78 xenograft tumors; format: in vivo, NSG mice
Hut78 cells [1] = experiment: Cell proliferation assays; format: cell-based, human
[2] = system: Foxp3 in HH and Hut78 cells; experiment: Intracellular staining of Foxp3; format: cell-based, human; conditions: 1 µM, 48 h
[3] = system: CD25, CD5 and CD7 on HH and Hut78 cells; experiment: Flow cytometry of CD25, CD5 and CD7; format: cell-based, human; conditions: 2 µM, 48 hours
Hut78 cells [4] = experiment: IC50 assay, trypan blue exclusion count; format: cell-based, human
HH cells [5] = experiment: Candidate PROTACs, cell viability by CCK8; format: cell-based, human; conditions: CCK8 (Fig 3c)
CDK9 [6] = target: T1, CDK9 (Homo sapiens, UniProt P50750); experiment: IHC staining of human CDK9 in Hut78 xenograft tumors; format: in vivo, NSG mice; conditions: intraperitoneal injection
293T cells = experiment: Viability of normal cells, trypan blue; format: cell-based, human
HH cells [7] = experiment: IC50 assay, trypan blue exclusion count; format: cell-based; conditions: Homo sapiens, 48 h
Hut78 xenografts = experiment: Hut78 cell line derived xenograft in NSG mice; format: in vivo
CDK2, CDK6 and CDK7 = experiment: Western blot of other CDKs in Hut78 cells; format: cell-based, human
Hut78 cell proteins = experiment: Quantitative MS-based proteomics of Hut78 cells; format: cell-based, human
[8] = system: CDK9 (55 kDa) and CDK9 (42 kDa) mRNA; experiment: Q-PCR of CDK9 isoforms in Hut78 cells; format: cell-based, human
CDK9 [9] = target: T1, CDK9; experiment: Western blot of CDK9 in Hut78 cells; format: cell-based; conditions: for degradation of CDK9 (immunoblot): Hut78 cells
CDK9 [10] = target: T1, CDK9; experiment: DC50; format: cell-based; conditions: CDK9 in Hut78 cells; 10 h
RARα = experiment: Western blot of RARα in Hut78 cells; format: cell-based, human
RARA mRNA = experiment: Q-PCR of RARA in Hut78 cells; format: cell-based, human
HH tumors = experiment: HH cell line derived xenograft in nude mice; format: in vivo
CDK9 [11] = target: T1, CDK9; format: cell-based; conditions: Hut78; 10 μM for 2 h prior to 6-h of GT-02897 (100 nM)
CDK9 [12] = target: T1, CDK9; experiment: Western blot of CDK9 in MOLT-4 cells; format: cell-based; conditions: MOLT-4 acute lymphoblastic leukemia cell line
CDK9 [13] = experiment: Western blot of CDK9 in HH cells; conditions: HH cells (Fig 3b)
Hut78 cells [14] = experiment: Cell viability / cell death at fixed dose, trypan blue; conditions: 250 nM, trypan blue (Supplementary Fig 4a)

T1 sequence (P50750 whole entry): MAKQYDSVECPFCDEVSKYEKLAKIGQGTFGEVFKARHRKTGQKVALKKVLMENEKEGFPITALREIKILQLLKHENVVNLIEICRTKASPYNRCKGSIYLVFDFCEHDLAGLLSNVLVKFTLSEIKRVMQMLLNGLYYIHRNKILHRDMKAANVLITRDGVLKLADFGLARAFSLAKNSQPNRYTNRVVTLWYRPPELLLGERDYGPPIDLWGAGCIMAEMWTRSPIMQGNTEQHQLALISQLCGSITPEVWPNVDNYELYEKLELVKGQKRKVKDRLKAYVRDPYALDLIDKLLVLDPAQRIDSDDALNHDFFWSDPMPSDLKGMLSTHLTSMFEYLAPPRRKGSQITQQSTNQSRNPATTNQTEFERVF

With `CC1=C(/C=C/C(C)=C/C=C/C(C)=C/C(=O)O)C(C)(C)CCC1` [ATRA, all-trans retinoic acid] the “CD25 expression in isolated tumor tissues (IHC)” value (human CD25) was “in vivo upregulation of CD25 expression”, the “CTCL cell growth and apoptosis” value (Hut78 cells [1]; CTCL cells (Hut78, Fig 7g)) was “significant inhibition of cell growth without cell apoptosis” and the “cell growth of shCDK9-infected Hut78 cells” value (Hut78 cells [1]; Hut78 infected with shCDK9) was “more pronounced inhibition of cell growth”. The “Expression of Foxp3” value [2] was “not changed”, the “CD5 and CD7 level (flow cytometry)” value [3] was “unchanged” and the “CD25 expression (flow cytometry)” value [3] was “emerging expression of CD25”.

In the case of `CC(C)(C)c1cnc(CSc2cnc(NC(=O)C3CCN(C(=O)CCCSc4cccc5c4C(=O)N(C4CCC(=O)NC4=O)C5=O)CC3)s2)o1` (centres unmarked) [Compound 9, N-(5-(((5-(tert-butyl)oxazol-2-yl)methyl)thio)thiazol-2-yl)-1-(4-((2-(2,6-dioxopiperidin-3-yl)-1,3-dioxoisoindolin-4-yl)thio)butanoyl)piperidine-4-carboxamide], the IC50 (Hut78 cells [4]; Homo sapiens, HuT78, 48 h) is reported as 339 nM and the “concentration displaying significant killing effects” value (HH cells [5]) is reported as “below 500 nM”.

For `CC(C)(C)c1cnc(CSc2cnc(NC(=O)C3CCN(C(=O)COCCOCCSc4cccc5c4C(=O)N(C4CCC(=O)NC4=O)C5=O)CC3)s2)o1` (centres unmarked) [Compound 19, N-(5-(((5-(tert-butyl)oxazol-2-yl)methyl)thio)thiazol-2-yl)-1-(2-(2-(2-((2-(2,6-dioxopiperidin-3-yl)-1,3-dioxoisoindolin-4-yl)thio)ethoxy)ethoxy)acetyl)piperidine-4-carboxamide], the IC50 (Hut78 cells [4]; Homo sapiens, HuT78, 48 h) was 404 nM and the “concentration displaying significant killing effects” value (HH cells [5]) was “below 500 nM”.

In the case of `CC(C)(C)c1cnc(CSc2cnc(NC(=O)C3CCN(CCCCCSc4cccc5c4CN(C4CCC(=O)NC4=O)C5=O)CC3)s2)o1` (centres unmarked) [Compound 23, N-(5-(((5-(tert-butyl)oxazol-2-yl)methyl)thio)thiazol-2-yl)-1-(5-((2-(2,6-dioxopiperidin-3-yl)-1-oxoisoindolin-4-yl)thio)pentyl)piperidine-4-carboxamide], the “CDK9 in isolated tumor tissues (IHC)” value (CDK9 [6]) is reported as “in vivo degradation of CDK9 by GT-02897 was further confirmed”, the “killing effects on 293T cell” value (293T cells) is reported as “minimal killing effects” and the “inhibition of CTCL cells, co-administration with ATRA” value (Hut78 cells [1]; Hut78, in vitro, cell number by trypan blue) is reported as “more significant inhibition of CTCL cells”. The IC50 (HH cells [7]) was 66.2 nM, the “CTCL tumors in vivo, co-administration with ATRA” value (Hut78 xenografts; Hut78 xenograft) was “more significant inhibition of CTCL tumors in vivo” and the “Hut78 cell growth in vivo” value (Hut78 xenografts; every other day, intraperitoneal or subcutaneous injection, 14 days) was “significantly suppress Hut78 cell growth in vivo”. For the same compound, the “growth inhibition effect in CDK9-depleted (shRNA) Hut78 xenografts” value (Hut78 xenografts; shCDK9-1 or shCDK9-2) was “significantly impaired the growth inhibition effect of GT-02897”, the IC50 (Hut78 cells [4]; Homo sapiens, HuT78, 48 h) was 49.7 nM and the “protein levels of CDK2, CDK6 and CDK7 (immunoblot)” value (shortened to “protein levels of CDK2”) (CDK2, CDK6 and CDK7) was “without interfering protein levels of CDK2, CDK6 and CDK7”. For the same compound, the “CDK9 abundance in quantitative proteomics” value (Hut78 cell proteins; 6 h after treatment, 5,689 proteins) was “one of the most significantly downregulated proteins”, the RARα protein (Hut78 cell proteins; proteomics 12 hours, validated by western blot) was “significantly upregulated” and the “mRNA expression of CDK9 (42 kDa) and CDK9 (55 kDa) isoforms” value [8] was “not affected”. For the same compound, the “degradation of CDK9 (immunoblot)” value (CDK9 [9]) was “strong degradation of CDK9” and the DC50 (CDK9 [10]) was 2.85 nM.

With `CC(C)(C)c1cnc(CSc2cnc(NC(=O)C3CCN(CCCCCCCCSc4cccc5c4CN(C4CCC(=O)NC4=O)C5=O)CC3)s2)o1` (centres unmarked) [Compound 24, N-(5-(((5-(tert-butyl)oxazol-2-yl)methyl)thio)thiazol-2-yl)-1-(8-((2-(2,6-dioxopiperidin-3-yl)-1-oxoisoindolin-4-yl)thio)octyl)piperidine-4-carboxamide] the “protein levels of CDK2” value (CDK2, CDK6 and CDK7) was “without interfering protein levels of CDK2, CDK6 and CDK7” and the “degradation of CDK9 (immunoblot)” value (CDK9 [9]) was “strong degradation of CDK9”.

For `CC(C)(C)c1cnc(CSc2cnc(NC(=O)C3CCN(CCCCSc4cccc5c4C(=O)N(C4CCC(=O)NC4=O)C5=O)CC3)s2)o1` (centres unmarked) [Compound 25, N-(5-(((5-(tert-butyl)oxazol-2-yl)methyl)thio)thiazol-2-yl)-1-(4-((2-(2,6-dioxopiperidin-3-yl)-1,3-dioxoisoindolin-4-yl)thio)butyl)piperidine-4-carboxamide], the IC50 (Hut78 cells [4]; Homo sapiens, HuT78, 48 h) was 50 to 165 nM, the “protein levels of CDK2” value (CDK2, CDK6 and CDK7) was “without interfering protein levels of CDK2, CDK6 and CDK7” and the “degradation of CDK9 (immunoblot)” value (CDK9 [9]) was “strong degradation of CDK9”.

For `CC(C)(C)c1cnc(CSc2cnc(NC(=O)C3CCN(CCCCCCCSc4cccc5c4C(=O)N(C4CCC(=O)NC4=O)C5=O)CC3)s2)o1` (centres unmarked) [Compound 26, N-(5-(((5-(tert-butyl)oxazol-2-yl)methyl)thio)thiazol-2-yl)-1-(7-((2-(2,6-dioxopiperidin-3-yl)-1,3-dioxoisoindolin-4-yl)thio)heptyl)piperidine-4-carboxamide], the IC50 (Hut78 cells [4]; Homo sapiens, HuT78, 48 h) was 50 to 165 nM, the “protein levels of CDK2” value (CDK2, CDK6 and CDK7) was “without interfering protein levels of CDK2, CDK6 and CDK7” and the “degradation of CDK9 (immunoblot)” value (CDK9 [9]) was “strong degradation of CDK9”.

With `CC(C)(C)c1cnc(CSc2cnc(NC(=O)C3CCN(CCCCCCCCSc4cccc5c4C(=O)N(C4CCC(=O)NC4=O)C5=O)CC3)s2)o1` (centres unmarked) [Compound 27, N-(5-(((5-(tert-butyl)oxazol-2-yl)methyl)thio)thiazol-2-yl)-1-(8-((2-(2,6-dioxopiperidin-3-yl)-1,3-dioxoisoindolin-4-yl)thio)octyl)piperidine-4-carboxamide] the IC50 (Hut78 cells [4]; Homo sapiens, HuT78, 48 h) was 50 to 165 nM.

`CN1CC[C@H](c2c(O)cc(O)c3c(=O)cc(-c4ccccc4Cl)oc23)[C@H](O)C1` [Flavopiridol] was tested, and the “RARα protein (Western blot)” value (RARα) was “did not yield upregulation of RARα”, the “mRNA level of RARA” value (RARA mRNA) was “nor did it affect the mRNA level of RARA” and the “HH tumors in xenograft models” value (HH tumors) was “induced regression of HH tumors in vivo”.

For `CC(C)C[C@@H](C=O)NC(=O)[C@H](CC(C)C)NC(=O)[C@H](CC(C)C)NC(=O)OCc1ccccc1` [MG132, reference compound] (Cbz-Leu-Leu-Leu-aldehyde), the “effect of MG132 on CDK9 loss induced by GT-02897” value (CDK9 [9]; Hut78, GT-02897 in presence or absence of MG132) was “reverted the expression of CDK9 protein”.

In the case of `O=C1NCCc2[nH]c(-c3ccncc3)cc21` [PHA-767491, reference compound], the “effect of pre-treatment on degradation of CDK9 by GT-02897” value (CDK9 [11]) is reported as “significantly dampened the degradation of CDK9” and the IC50 (Hut78 cells [4]; Hut78 cells, 48-h, trypan blue) is reported as 926 nM.

`CC(C)(C)c1cnc(CSc2cnc(NC(=O)C3CCNCC3)s2)o1` [SNS-032] was tested, and the “effect of pre-treatment on degradation of CDK9 by GT-02897” value (CDK9 [11]) was “significantly dampened the degradation of CDK9” and the “HH tumors in xenograft models” value (HH tumors) was “induced regression of HH tumors in vivo”.

In the case of `CC(C)(C)c1cnc(CSc2cnc(NC(=O)C3CCN(CC(=O)NCCOCCOCCOCCNc4cccc5c4C(=O)N(C4CCC(=O)NC4=O)C5=O)CC3)s2)o1` (centres unmarked) [THAL-SNS-032], the “CDK9 protein (Western blot)” value (CDK9 [12]) is reported as “induced significant loss of CDK9”, the “CDK9 protein (Western blot)” value (CDK9 [13]) is reported as “did not disturb CDK9 protein” and the “killing in CTCL cells” value (Hut78 cells [14]) is reported as “nor did it display effective killing”.
